# Assay results from paper PMC4186413, “Identification of metabolic pathways and enzyme systems involved in the in vitro human hepatic metabolism of dronedarone, a potent new oral antiarrhythmic drug” (Pharmacology Research & Perspectives, 2014).
# Assays:
# Assay type in all cases: in vitro ADME
# CYP3A4 = target: T1, CYP3A4 (Homo sapiens, UniProt P08684); assay: Oxidation by recombinant human CYP3A4; conditions: for Percentage of oxidation (unchanged drug disappearance) by CYP3A4: 100 pmol/mL, 5 μmol/L, 30 min, NADPH
# T1 construct: purchased BD Gentest (Woburn, MA); host or cells: baculovirus-infected insect cells
# T1 sequence (P08684 whole entry): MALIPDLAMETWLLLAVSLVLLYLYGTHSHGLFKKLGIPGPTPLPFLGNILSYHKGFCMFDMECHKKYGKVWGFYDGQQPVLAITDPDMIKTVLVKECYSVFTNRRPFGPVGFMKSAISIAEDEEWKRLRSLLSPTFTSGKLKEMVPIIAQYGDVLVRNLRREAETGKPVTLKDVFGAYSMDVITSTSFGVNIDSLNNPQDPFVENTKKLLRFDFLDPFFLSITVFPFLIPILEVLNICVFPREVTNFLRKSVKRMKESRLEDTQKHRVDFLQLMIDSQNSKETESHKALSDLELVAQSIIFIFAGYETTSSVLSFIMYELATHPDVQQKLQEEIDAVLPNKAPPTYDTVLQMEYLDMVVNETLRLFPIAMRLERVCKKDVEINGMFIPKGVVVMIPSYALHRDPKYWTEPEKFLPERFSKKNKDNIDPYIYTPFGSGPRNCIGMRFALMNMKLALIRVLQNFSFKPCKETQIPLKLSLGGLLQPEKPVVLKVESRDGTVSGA
# Excerpt: (§1) Recombinant human CYPs (Supersomes™; BD Gentes, Woburn, MA: CYP1A1, CYP1A2, CYP2A6, CYP2B6, CYP2C8, CYP2C9, CYP2C18, CYP2C19, CYP2D6, CYP2E1, CYP3A4 and CYP3A5), FMOs (Supersomes™: FMO1, FMO3, FMO5), MAOs (Supersomes™: MAO-A and MAO-B), and UGTs (Supersomes™: UGT1A1, UGT1A3, UGT1A4, UGT1A6, UGT1A7, UGT1A8, UGT1A9, UGT1A10, UGT2B4, UGT2B7, UGT2B15, and UGT2B17) expressed in baculovirus-infected insect cells and control microsomes from insect cells infected with wild-type baculovirus were all obtained from BD Gentest (Woburn, MA).
# For oxidative pathways, the assay mixture was composed of human liver microsomes (1 mg·m·L^−1) or microsomes of baculovirus-infected cells expressing human enzymes (100 pmol·mL^−1 for CYPs and 1 mg·mL^−1 for FMOs and MAOs), nicotinamide adenine dinucleotide phosphate reduced form (NADPH) (1 mmol/L), 100 mmol/L potassium phosphate (pH 7.4), and 5 μmol/L of the investigated compound dissolved in DMSO in a final volume of 500 μL.
# The final concentration of DMSO in the reaction mixture was less than 1% (v/v). Initial rate conditions with respect to time and protein concentration for both the disappearance of unchanged drug and the formation of respective metabolites were established in preliminary studies. […]
# (§2) In human liver microsomes and recombinant isoforms, the percentage of metabolism was determined on the basis of unchanged drug disappearance, using the following equation [drawing 1] where UDt = 30 min represents the unchanged drug peak area after a 30-min incubation period and UDt = 0, the unchanged drug peak area at t = 0. […]
# (§3) Figure 5 Contribution of individual CYPs, FMOs and MAOs to the oxidation of dronedarone and its metabolites. […] Unchanged drugs were quantified by LC/MS-MS relative to the synthetic references as described in Materials and Methods. Data are expressed as the percentage of oxidation.
# CYP3A5 = target: T2, CYP3A5 (Homo sapiens, UniProt P20815); assay: Oxidation by recombinant human CYP3A5
# T2 construct: purchased BD Gentest (Woburn, MA); host or cells: baculovirus-infected insect cells
# T2 sequence (P20815 whole entry): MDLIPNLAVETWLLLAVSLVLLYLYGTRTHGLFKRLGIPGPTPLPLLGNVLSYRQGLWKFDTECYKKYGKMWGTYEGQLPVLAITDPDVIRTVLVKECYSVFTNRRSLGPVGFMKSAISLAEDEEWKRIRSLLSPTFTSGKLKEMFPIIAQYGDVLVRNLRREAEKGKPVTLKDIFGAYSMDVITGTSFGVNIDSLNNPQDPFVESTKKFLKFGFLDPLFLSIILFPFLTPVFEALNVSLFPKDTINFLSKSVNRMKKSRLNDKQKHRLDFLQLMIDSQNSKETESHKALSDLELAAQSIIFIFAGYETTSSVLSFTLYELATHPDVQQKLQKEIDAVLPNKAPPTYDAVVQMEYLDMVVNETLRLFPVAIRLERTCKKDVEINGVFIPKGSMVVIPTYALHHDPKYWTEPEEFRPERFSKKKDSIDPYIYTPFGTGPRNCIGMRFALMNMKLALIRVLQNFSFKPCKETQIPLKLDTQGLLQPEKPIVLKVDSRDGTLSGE
# Excerpt: (§4) Recombinant human CYPs (Supersomes™; BD Gentes, Woburn, MA: CYP1A1, CYP1A2, CYP2A6, CYP2B6, CYP2C8, CYP2C9, CYP2C18, CYP2C19, CYP2D6, CYP2E1, CYP3A4 and CYP3A5), FMOs (Supersomes™: FMO1, FMO3, FMO5), MAOs (Supersomes™: MAO-A and MAO-B), and UGTs (Supersomes™: UGT1A1, UGT1A3, UGT1A4, UGT1A6, UGT1A7, UGT1A8, UGT1A9, UGT1A10, UGT2B4, UGT2B7, UGT2B15, and UGT2B17) expressed in baculovirus-infected insect cells and control microsomes from insect cells infected with wild-type baculovirus were all obtained from BD Gentest (Woburn, MA). […]
# as §2, §3
# UGT2B7 = target: T3, UGT2B7 (Homo sapiens, UniProt P16662); assay: Glucuronidation by recombinant human UGT2B7; conditions: 1 mg/mL, 5 μmol/L, 30 min, UDPGA
# T3 construct: purchased BD Gentest (Woburn, MA); host or cells: baculovirus-infected insect cells
# T3 sequence (P16662 24-529): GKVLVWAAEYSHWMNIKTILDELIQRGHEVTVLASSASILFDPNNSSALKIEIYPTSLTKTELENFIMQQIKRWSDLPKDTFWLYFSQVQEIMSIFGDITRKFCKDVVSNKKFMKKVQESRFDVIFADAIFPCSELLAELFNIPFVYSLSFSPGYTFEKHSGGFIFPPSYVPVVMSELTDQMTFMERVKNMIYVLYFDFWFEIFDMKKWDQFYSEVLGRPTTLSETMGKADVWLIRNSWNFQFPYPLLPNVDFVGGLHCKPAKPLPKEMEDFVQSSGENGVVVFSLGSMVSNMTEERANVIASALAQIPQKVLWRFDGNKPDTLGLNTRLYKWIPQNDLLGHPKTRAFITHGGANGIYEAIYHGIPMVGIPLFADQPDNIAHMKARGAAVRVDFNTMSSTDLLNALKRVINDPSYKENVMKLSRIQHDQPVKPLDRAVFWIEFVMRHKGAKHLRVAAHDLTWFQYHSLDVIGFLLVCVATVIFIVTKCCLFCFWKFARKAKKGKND
# Excerpt: as §1
# For glucuronidation pathways, the assay mixture was composed of human liver microsomes (2 mg·mL^−1) or microsomes of baculovirus-infected cells expressing human UGTs (1 mg·mL^−1), uridine 5′-diphosphoglucuronic acid (UDPGA) (3 mmol/L), 100 mmol/L Tris HCl (pH 7.4) containing 5 mmol/L MgCl2 and 5 μmol/L of the investigated compound dissolved in DMSO in a final volume of 500 μL. The final concentration of DMSO in the reaction mixture was less than 1% (v/v). […]
# Figure 7 Contribution of individual UGTs to the glucuronidation of propanoic acid-dronedarone and phenol-dronedarone. […] Unchanged drugs were quantified by LC/MS-MS relative to the synthetic references as described in Materials and Methods. Data are expressed as the percentage of glucuronidation.
# [1] = Glucuronidation by human hepatic microsomal fractions with UDPGA; conditions: 5 μmol/L; for Metabolism in the presence of UDPGA: UDPGA as cofactor
# Protocol: Human hepatic microsomal fractions were obtained from a large pool of human liver (150 individuals) prepared by BD Gentest-Biosciences (BD UltraPool™ HLM 150 – catalogue reference, 452118 Easy Count Box, Woburn, MA). This pooled human liver microsomal batch was also validated internally by the use of FDA-recommended CYP probes (FDA guidance for Industry, draft guidance February 2012).
# For glucuronidation pathways, the assay mixture was composed of human liver microsomes (2 mg·mL^−1) or microsomes of baculovirus-infected cells expressing human UGTs (1 mg·mL^−1), uridine 5′-diphosphoglucuronic acid (UDPGA) (3 mmol/L), 100 mmol/L Tris HCl (pH 7.4) containing 5 mmol/L MgCl2 and 5 μmol/L of the investigated compound dissolved in DMSO in a final volume of 500 μL. The final concentration of DMSO in the reaction mixture was less than 1% (v/v). Initial rate conditions with respect to time and protein concentration for both the disappearance of unchanged drug and the formation of respective metabolites were established in preliminary studies. The microsomal mixture was first incubated for 10 min at 4°C in the presence of alamethicin (0.125 mg·mL^−1), then the reaction was initiated by addition of UDPGA (30 mmol/L aqueous solution) to achieve a final concentration of 3 mmol/L for UGT-dependent reactions, incubated at 37°C and stopped after 0–30 min by addition of one volume of ice-cold acetonitrile.
# After removal of the proteins by centrifugation at 10,000 rpm for 10 min, a portion of the supernatant was analyzed by LC-UV-MS.
# Since a N-glucuronidation process could not be excluded, and because some of the metabolites bear either, a free hydroxyl group or carboxylic acid function, glucuronidation of dronedarone and its potential metabolites was also investigated in human hepatic microsomal fractions in the presence of UDPGA as cofactor. Only propanoic acid-dronedarone and phenol-dronedarone were metabolized in the presence of UDPGA.
# Figure 6 Quantitative glucuronidation of propanoic acid-dronedarone (A) and phenol-dronedarone (B) during a 30-min incubation of human hepatic microsomal fractions (1 mg/mL final concentration) with 5 μmol/L unchanged drug in the presence of UDPGA. The kinetics of propanoic acid-dronedarone disappearance (○-○), phenol-dronedarone disappearance and their respective glucuronide formation (●-●, dashed line) were recorded over 30 min. Propanoic acid-dronedarone and phenol-dronedarone were quantified by LC/MS-MS relative to the synthetic references, while the peak area of their respective identified glucuronide was expressed in arbitrary units (×10^3), as described in Materials and Methods.
# CYP1A1 = target: T4, CYP1A1 (Homo sapiens, UniProt P04798); assay: Oxidation by recombinant human CYP1A1; conditions: 100 pmol/mL, 5 μmol/L, 30 min, NADPH
# T4 construct: purchased BD Gentest (Woburn, MA); host or cells: baculovirus-infected insect cells
# T4 sequence (P04798 whole entry): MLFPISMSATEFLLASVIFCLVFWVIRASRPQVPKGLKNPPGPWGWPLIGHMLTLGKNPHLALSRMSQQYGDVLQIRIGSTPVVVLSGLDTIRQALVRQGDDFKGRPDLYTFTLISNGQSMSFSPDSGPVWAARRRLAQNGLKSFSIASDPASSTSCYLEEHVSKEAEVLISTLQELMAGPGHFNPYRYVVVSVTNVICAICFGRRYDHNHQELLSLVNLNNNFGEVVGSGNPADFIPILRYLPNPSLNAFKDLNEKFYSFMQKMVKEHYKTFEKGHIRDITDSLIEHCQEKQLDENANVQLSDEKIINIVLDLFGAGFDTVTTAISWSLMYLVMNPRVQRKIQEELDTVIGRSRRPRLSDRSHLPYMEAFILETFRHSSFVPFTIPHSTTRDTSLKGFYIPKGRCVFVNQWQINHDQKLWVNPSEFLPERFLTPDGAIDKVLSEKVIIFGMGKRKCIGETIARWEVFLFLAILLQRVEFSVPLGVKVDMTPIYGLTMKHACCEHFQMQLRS
# Excerpt: as §4, §2, §3
# [2] = 5 μmol/L dronedarone, end of 30-min incubation
SMILES,Percentage of oxidation (unchanged drug disappearance) by CYP3A4 (CYP3A4) [%],"Metabolite formed, as percent of initial dronedarone concentration, with CYP3A4 (CYP3A4; [2]) [%]","Metabolite formed, as percent of initial dronedarone concentration, with CYP3A5 (CYP3A5; [2]) [%]",Glucuronosyl transferase activity of UGT2B7 (UGT2B7),Metabolism in the presence of UDPGA [1],"Initial drug metabolized ([1]; UDPGA, in 10 min)",Percentage of oxidation (unchanged drug disappearance) by CYP1A1 (CYP1A1) [%],"Unchanged drug remaining, percent of initial concentration ([1]; UDPGA, 30th minute of incubation) [%]","Percentage of oxidation (unchanged drug disappearance) by CYP3A5 (CYP3A5; 100 pmol/mL, 5 μmol/L, 30 min, NADPH) [%]"
CCCCNCCCOc1ccc(C(=O)c2c(CCCC)oc3ccc(NS(C)(=O)=O)cc23)cc1 [N-debutyl-dronedarone],21,60,50,–,–,–,–,–,–
CCCCc1oc2ccc(NS(C)(=O)=O)cc2c1C(=O)c1ccc(O)cc1 [Phenol-dronedarone],–,–,–,significant glucuronosyl transferase activity,metabolized,more than 70%,99,–,–
CCCCc1oc2ccc(NS(C)(=O)=O)cc2c1C(=O)c1ccc(OCCC(=O)O)cc1 [Propanoic acid-dronedarone],–,–,–,significant glucuronosyl transferase activity,metabolized,–,59,70,–
"CCCCc1oc2ccc(NS(C)(=O)=O)cc2c1C(=O)c1ccc(OCCCN(CCCC)CCCC)cc1.Cl [Dronedarone, N-(2-Butyl-3-(4-(3-(dibutylamino)propoxy)benzoyl)-5-benzofuranyl)methanesulfonamide, hydrochloride]",94,–,–,–,–,–,–,–,90
